This experiment deals with older rats. Put plainly: Elevated plus-maze, older rats fed QBA. Format: in vivo, rat. Particulars: for Time (s) in Open Arm: rats 18 months old, 5-min test. Here is the method:
The dose-response characteristics of 10-Hydroxy-2-decenoic acid's (QBA's) potential brain health benefits during aging were assessed for mood in older rats (18-20 months old).
Rats were fed QBA and subjected to an elevated plus-maze. The elevated plus-maze was elevated ˜85 cm above the floor and consisted of two open and two closed arms of the same size (50×10 cm). The closed arms were surrounded by walls 40 cm high, and the arms were constructed of black acrylic slabs that radiated from a central platform (10×10 cm) to form a plus sign. Each rat was placed in the central platform facing one of the open arms, and its behavior was recorded during a 5-min testing period with video capture software. More time spent in the open arms is an indication of reduced anxiety-like state. Rats were tested at 18 months old (N=11-13 per group).

The structures appear in SMILES notation.

Turning to `O=C(O)C=CCCCCCCCO` [QBA, 10-Hydroxy-2-decenoic acid], the “Time (s) in Open Arm” value by setting is: (QBA 0.4 mg/kg/day) 48.5 s; (QBA 4 mg/kg/day) 52.2 s; (QBA 12 mg/kg/day) 37.1 s; (QBA 24 mg/kg/day) 69.8 s. The “anxiety as measured by the time in the open arms of the elevated plus maze” value (QBA 24 mg/kg/d, 15-18-month old male rats) was “decreased anxiety”.

The values are drawn from patent US10004711B2, “Methods and compositions comprising 10-hydroxy-2-decenoic acid” (DSM IP ASSETS B.V., priority 2014, dated 2018).
